Experimental data published in patent US20080280920A1, “Plasminogen Activator Inhibitor-1 Inhibitors” (priority 2005, published 2008).

Experiments:
Assay type in all cases: cell-based, human
NCI-H322M = experiment: NCI anticancer screen, NCI-H322M; settings: Non-Small Cell Lung, 48 h; for GI50 / CC50: Homo sapiens; for CC50: read-out: LC50 (the source's name)
CCRF-CEM = experiment: NCI anticancer screen, CCRF-CEM; settings: Leukemia, 48 h
RPMI-8226 = experiment: NCI anticancer screen, RPMI-8226; settings: RPMI-8226, Leukemia, 48 h
HOP-62 = experiment: NCI anticancer screen, HOP-62; settings: HOP-62, Non-Small Cell Lung, 48 h
[1] = Homo sapiens, read-out: LC50 (the source's name)

In the case of `COc1cc(CNCC2CCN(C(=O)OC(C)(C)C)CC2)cc(CN2CCN(c3ccccn3)CC2)c1O` [Compound Q012132, 2-Methoxy-4-({[(N-t-butyloxycarbonylpiperidin-4-yl)methyl]amino}methyl)-6-[(4-pyridin-2-ylpiperazin-1-yl)methyl]phenol], the GI50 (NCI-H322M) is reported as 37.8 µM, the CC50 (NCI-H322M) is reported as > 100 µM and the TGI (NCI-H322M) is reported as >100 µM.
In the case of `CCOC(=O)[C@H](Cc1ccccc1)NCc1cc(CN2CCN(c3ccccn3)CC2)c(O)c(OC)c1` [Compound Q012147T], the GI50 (NCI-H322M) is reported as 49.4 µM.
For `CC(C)(C)OC(=O)Nc1ccc(O)c(C(=O)NCCOC(=O)NCCNC(=O)c2cc(OCc3ccccc3)ccc2OCc2ccccc2)c1` [Compound Q012052, 2-[5-(BOC-amino)-2-hydroxybenzoylamino]ethyl 2-[2,5-bis-(benzyl-oxy)benzoylamino]ethylcarbamate], the GI50 (CCRF-CEM; Homo sapiens) was > 100 µM, the GI50 (RPMI-8226; Homo sapiens) was 7.58 µM and the GI50 (HOP-62; Homo sapiens) was > 100 µM. For the same compound, the GI50 (NCI-H322M) was > 100 µM.
Work on `CCOC(=O)c1ccc(CNCc2cc(CN3CCN(c4ccccn4)CC3)c(O)c(OC)c2)cc1` [Compound Q012135T] yielded a GI50 (CCRF-CEM; Homo sapiens) of 14.1 µM, a CC50 (CCRF-CEM; [1]) of 14.1 µM and a TGI (CCRF-CEM) of 48.4 µM. It also gave a GI50 (RPMI-8226; Homo sapiens) of 7.14 µM, a CC50 (RPMI-8226; [1]) of 7.14 µM and a TGI (RPMI-8226) of 24.5 µM. The TGI (HOP-62) was 43.9 µM, the GI50 (HOP-62; Homo sapiens) was 20.6 µM and the LC50 (HOP-62; Homo sapiens) was 93.8 µM. For the same compound, the GI50 (NCI-H322M) was 33.8 µM, the CC50 (NCI-H322M) was > 100 µM and the TGI (NCI-H322M) was >100 µM.
For `COc1cc(CNc2ccc(C(=O)OC(C)(C)C)cc2)cc(CN2CCN(c3ccccn3)CC2)c1O` [Compound Q012145T], the GI50 (NCI-H322M) was > 100 µM.
